Measurements taken from patent US20220288057A1, “CONJOINT THERAPY FOR TREATING SEIZURE DISORDERS” (XENON PHARMACEUTICALS INC., priority 2021, published 2022).
Like-named read-outs stand apart in the source and are kept apart here.

Assays:
[1] = tested on: tonic hindlimb seizure following corneal stimulation in CF-1 mice; experiment: Mouse maximal electroshock (MES) assay, 60 Hz 50 mA corneal stimulation; type: in vivo; details: for IC50: Mus musculus
Protocol: The interaction of Compound A with other ASMs was evaluated after oral dosing in the mouse maximal electroshock (MES) assay to determine whether some combinations were favorable or unfavorable. Efficacy was quantified by calculating the fraction of animals with a tonic hindlimb seizure following corneal stimulation. Compound Preparation: Compound A was initially solubilized in DMSO. This solution was then added into a 0.5% methyl cellulose solution to create a more even and less aggregated compound suspension. Serial dilutions were prepared from the tube with the highest concentration of Compound A and the compound suspensions were further vortexed prior to animal dosing. The final concentration of DMSO was 5%, an amount with no apparent toxicity or neuroprotection in the MES assay. […] Animals: Adult male CF-1 albino mice (25-35 g) purchased from Harlan-Envigo were used. The mice were housed four per cage and had access to filtered water and chow ad libidum, throughout the experiment. MES Assay: Compounds were administered orally by gavage before testing unless indicated otherwise. During MES testing, a 60-Hz alternating current (50 mA) was delivered for 0.2 seconds through corneal electrodes to the mice. A drop of 0.5% Alcaine solution was placed on the eye prior to current delivery. The electrodes were subsequently placed gently onto the eyes of the animal and the electrical shock was initiated by triggering through a foot-pedal activator. The animals were restrained by hand and gently released as the shock was delivered and the seizure commenced. Animals were monitored for hind limb tonic extension as the end point for this test. Statistical analysis: All statistics were calculated using Prism version 7 software (Graphpad Software). The method used for each experiment is indicated in the results section. Concentration-response curves were calculated as best fits to the equation […] where X was the log of plasma concentration. Unless indicated otherwise, bottom was constrained to be 0. Top was constrained to be the value determined experimentally by vehicle control measurements. Compound A Dose Response: […]

[2] = Plasma and brain concentrations in 6 Hz studies (LC-MS/MS); type: in vivo, mouse
Protocol: Sample Collection and Preparation: Mice were anesthetized by isoflurane inhalation (TECH-018) until they reached a surgical plane of anesthesia. Then a syringe (1 mL syringe with a 22 gauge needle) was inserted under the sternum into the heart (TECH-031). Approximately 0.5 mL of blood was collected, deposited into a K2EDTA tube, and stored on ice. Animals were then euthanized by cervical dislocation (TECH-018). Brains were removed, placed into a pre-weighed vial, and snap frozen on dry ice. At the end of the sample collection, blood was centrifuged at 4000 rpm for 10 minutes at 4° C., and the plasma pipetted into a labeled tube. All samples were stored in a −80° C. freezer until bioanalysis (8 days after sample collection for Studies 3A and 3B; 20 days after sample collection for Study 3C).
Plasma and Tissue Sample Analysis: Bead mill polypropylene tubes containing weighed brain tissues were thawed at room temperature and 3 mL of homogenization solvent (water:acetonitrile (1:1, v:v)) was added. The tubes were placed in the Bead Mill Homogenizer (Bead Ruptor Elite Model, Omni International) and shaken at a velocity of 3.70 m/s for a single cycle lasting 30 seconds. The homogenized tube was centrifuged at 4000 rpm for 20 minutes, the supernatant was transferred to a 1.5 mL Eppendorf tube, and stored frozen at −80° C. until analysis. All samples including plasma and brain homogenate extracts (including calibration and quality control (QC) samples prepared in K2EDTA rat plasma), were extracted by protein precipitation. […] The samples in the 1.5 mL tubes were vortex mixed and then centrifuged for 20 minutes at 13,000 rpm. Fifty microliters of the supernatant was mixed with 150 μL of water/acetonitrile (1:1) in a 96 well plate which was centrifuged post mixing for 20 minutes at 4000 rpm, and was then ready for analysis by liquid chromatography tandem mass spectrometry (LC-MS/MS).
Samples were analyzed by a research-grade LC-MS/MS method as follows: […]

[3] = Compound A 1 mg/kg PO, 0.5 h before assay
[4] = Compound A 1 mg/kg PO, 2 h before assay
[5] = Compound A 2 mg/kg PO, 0.5 h before assay
[6] = Compound A 2 mg/kg PO, 2 h before assay
[7] = Compound A 4 mg/kg PO, 0.5 h before assay
[8] = Compound A 4 mg/kg PO, 2 h before assay
[9] = Compound A 8 mg/kg PO, 0.5 h before assay
[10] = Compound A 8 mg/kg PO, 2 h before assay

In the case of `Cc1cc(N2CCc3cc(F)ccc3C2)cc(C)c1NC(=O)CC(C)(C)C` [Compound A, N-[4-(6-fluoro-3,4-dihydro-1H-isoquinolin-2-yl)-2,6-dimethylphenyl]-3,3-dimethylbutanamide], the “fraction of animals without tonic seizures” value ([1]; Compound A 0.25 mg/kg PO 2 h alone (phenytoin study)) is reported as 0/8, the “fraction of animals without tonic seizures” value ([1]; Compound A 0.75 mg/kg PO 2 h alone (phenytoin study)) is reported as 2/8 and the “reduction of the fraction with tonic seizures” value ([1]; Compound A 1 mg/kg) is reported as 26.7%. For the same compound, the “maximum % seizures of fitted curve, reflecting efficacy of Compound A alone” value ([1]; Compound A 1 mg/kg PO 2 h) was 73.3%, the “number of mice without tonic seizures/total” value ([1]; Compound A 1 mg/kg PO 2 h + Vehicle IP 0.5 h (valproic acid study)) was 4/15 and the “fraction of mice without tonic seizures” value ([1]; Compound A 1 mg/kg PO 2 h alone (levetiracetam study)) was 2/11. The “fraction of animals without tonic seizures” value ([1]; Compound A 1 mg/kg PO 2 h alone (phenytoin study)) was 2/8, the “number of mice with tonic seizures/total number tested” value [1, 3] was 4/7 and the “percentage of mice protected from hindlimb tonic extensor component” value [1, 3] was 42.9%. The “number of mice with tonic seizures/total number tested” value [1, 4] was 5/7, the “percentage of mice protected from hindlimb tonic extension” value [1, 4] was 28.6% and the “number of mice with tonic seizures/total number tested” value [1, 5] was 2/7. The “percentage of mice protected from hindlimb tonic extensor component” value [1, 5] was 71.4%, the “number of mice with tonic seizures/total number tested” value [1, 6] was 4/7 and the “percentage of mice protected from hindlimb tonic extension” value [1, 6] was 42.9%. For the same compound, the “fraction of animals without tonic seizures” value ([1]; Compound A 2.5 mg/kg PO 2 h alone (phenytoin study)) was 4/8, the “number of mice with tonic seizures/total number tested” value [1, 7] was 1/7 and the “percentage of mice protected from hindlimb tonic extensor component” value [1, 7] was 85.7%. For the same compound, the “number of mice with tonic seizures/total number tested” value [1, 8] was 2/7, the “percentage of mice protected from hindlimb tonic extension” value [1, 8] was 71.4% and the “number of mice with tonic seizures/total number tested” value [1, 9] was 3/7. For the same compound, the “percentage of mice protected from hindlimb tonic extensor component” value [1, 9] was 71.4%, the “number of mice with tonic seizures/total number tested” value [1, 10] was 1/7 and the “percentage of mice protected from hindlimb tonic extension” value [1, 10] was 85.7%. For the same compound, the “fraction of mice without tonic seizures” value ([1]; Compound A […] PO 2 h alone (levetiracetam study)) was 3/8, the IC50 ([1]; Compound A PO alone, data 2 hours after dosing, read-out: IC50 based upon brain concentration (inhibition of tonic seizures)) was 275 nM and the IC50 ([1]; Compound A PO alone, data 2 hours after dosing, read-out: IC50 based upon plasma concentration (inhibition of tonic seizures)) was 154 nM. The IC50 ([1]; Compound A alone (phenytoin study), read-out: IC50 for Compound A (inhibition of tonic seizures, plasma concentration)) was 147 nM, the “fold higher brain concentration of Compound A in Study 3C compared to Study 3B” value ([2]; 1 hour post dosing) was 11 fold and the “fold higher plasma concentration of Compound A in Study 3C compared to Study 3B” value ([2]; 1 hour post dosing) was 12 fold. The concentration at 1 h ([2]; CF-1, mouse, brain, po, 1 mg/kg, Study 3A, Compound A 1 mg/kg PO, 1 h, read-out: Brain) was 90 nM, the concentration at 1 h ([2]; CF-1, mouse, brain, po, 3 mg/kg, Study 3A, Compound A 3 mg/kg PO, 1 h, read-out: Brain) was 260 nM and the concentration at 1 h ([2]; CF-1, mouse, brain, po, 4 mg/kg, Study 3B, Compound A 4 mg/kg PO 1 h alone, read-out: Brain) was 30 ± 20 nM. The concentration at 1 h ([2]; CF-1, mouse, brain, po, 4 mg/kg, Study 3C, Compound A 4 mg/kg PO 1 h alone, read-out: Brain) was 410 ± 230 nM, the concentration at 1 h ([2]; CF-1, mouse, brain, po, 5 mg/kg, Study 3A, Compound A 5 mg/kg PO, 1 h, read-out: Brain) was 290 nM and the concentration at 1 h ([2]; CF-1, mouse, brain, po, 8 mg/kg, Study 3A, Compound A 8 mg/kg PO, 1 h, read-out: Brain) was 700 ± 410 nM. For the same compound, the concentration at 1 h ([2]; CF-1, mouse, plasma, po, 1 mg/kg, Study 3A, Compound A 1 mg/kg PO, 1 h, read-out: Plasma) was 40 nM, the concentration at 1 h ([2]; CF-1, mouse, plasma, po, 3 mg/kg, Study 3A, Compound A 3 mg/kg PO, 1 h, read-out: Plasma) was 150 nM and the concentration at 1 h ([2]; CF-1, mouse, plasma, po, 4 mg/kg, Study 3B, Compound A 4 mg/kg PO 1 h alone, read-out: Plasma) was 14 ± 9 nM. For the same compound, the concentration at 1 h ([2]; CF-1, mouse, plasma, po, 4 mg/kg, Study 3C, Compound A 4 mg/kg PO 1 h alone, read-out: Plasma) was 167 ± 89.7 nM, the concentration at 1 h ([2]; CF-1, mouse, plasma, po, 5 mg/kg, Study 3A, Compound A 5 mg/kg PO, 1 h, read-out: Plasma) was 180 nM and the concentration at 1 h ([2]; CF-1, mouse, plasma, po, 8 mg/kg, Study 3A, Compound A 8 mg/kg PO, 1 h, read-out: Plasma) was 470 ± 290 nM. For the same compound, the “fold higher concentrations of Compound A in plasma and brain in Study 3C than in Study 3B” value ([2]; Compound A 4 mg/kg PO, 1 h) was “more than 10 fold”, the Plasma ([2]; Study 3A, Compound A 8 mg/kg PO, 1 h, 8 mg/kg) was 0.47 µM and the concentration at 1 h ([2]; Study 3A, Compound A 8 mg/kg PO, 1 h, 8 mg/kg, read-out: Brain) was 700 nM. It also gave a Plasma ([2]; Study 3B, Compound A 4 mg/kg PO 1 h alone, 4 mg/kg) of 0.01 ± 0.01 µM, a Plasma ([2]; Study 3B, Compound A 4 mg/kg PO 1 h alone, listed as Cmpd A, 4 mg/kg) of 0.01 µM and a concentration at 1 h ([2]; Study 3B, Compound A 4 mg/kg PO 1 h alone, listed as Cmpd A, 4 mg/kg, read-out: Brain) of 30 nM. For the same compound, the Plasma ([2]; Study 3C, Compound A 4 mg/kg PO 1 h alone, 4 mg/kg) was 0.17 µM, the concentration at 1 h ([2]; Study 3C, Compound A 4 mg/kg PO 1 h alone, 4 mg/kg, read-out: Brain) was 410 nM and the concentration at 1 h ([2]; mouse, brain, oral, Studies 3B+3C combined, analyte Compound A, 4 mg/kg PO + Levetiracetam 300 mg/kg IP, read-out: Brain) was 210 nM. For the same compound, the concentration at 1 h ([2]; mouse, brain, oral, Study 3B, analyte Compound A, 4 mg/kg PO + Levetiracetam 300 mg/kg IP, read-out: Brain) was 40 nM, the concentration at 1 h ([2]; mouse, brain, oral, Study 3C, analyte Compound A, 4 mg/kg PO + Levetiracetam 300 mg/kg IP, read-out: Brain) was 383 nM and the concentration at 1 h ([2]; mouse, brain, po, 4 mg/kg, Studies 3B+3C combined, Compound A 4 mg/kg PO 1 h alone, read-out: Brain) was 220 nM. The concentration at 1 h ([2]; mouse, brain, po, 4 mg/kg, Study 3B, Compound A 4 mg/kg PO 1 h alone, read-out: Brain) was 30 ± 20 nM, the concentration at 1 h ([2]; mouse, brain, po, 4 mg/kg, Study 3C, Compound A 4 mg/kg PO 1 h alone, read-out: Brain) was 410 ± 230 nM and the concentration at 1 h ([2]; mouse, plasma, oral, Studies 3B+3C combined, analyte Compound A, 4 mg/kg PO + Levetiracetam 300 mg/kg IP, read-out: Plasma) was 90 nM. It also gave a concentration at 1 h ([2]; mouse, plasma, oral, Study 3B, analyte Compound A, 4 mg/kg PO + Levetiracetam 300 mg/kg IP, read-out: Plasma) of 20 nM, a concentration at 1 h ([2]; mouse, plasma, oral, Study 3C, analyte Compound A, 4 mg/kg PO + Levetiracetam 300 mg/kg IP, read-out: Plasma) of 170 nM and a concentration at 1 h ([2]; mouse, plasma, po, 4 mg/kg, Studies 3B+3C combined, Compound A 4 mg/kg PO 1 h alone, read-out: Plasma) of 100 nM. It also gave a concentration at 1 h ([2]; mouse, plasma, po, 4 mg/kg, Study 3B, Compound A 4 mg/kg PO 1 h alone, read-out: Plasma) of 14 ± 9 nM and a concentration at 1 h ([2]; mouse, plasma, po, 4 mg/kg, Study 3C, Compound A 4 mg/kg PO 1 h alone, read-out: Plasma) of 170 ± 90 nM.
